Test results reported in ChEMBL document CHEMBL1139051, “Human ACAT inhibitory effects of shikonin derivatives from Lithospermum erythrorhizon” (Bioorg Med Chem Lett, 2007).

What was measured:
[1] = target: T1, Sterol O-acyltransferase 1 (Homo sapiens, UniProt P35610); assay: Inhibition of human ACAT1 expressed in Hi5 cells; parameters: species or system BTI-TN-5B1-4
T1 sequence (P35610 whole entry): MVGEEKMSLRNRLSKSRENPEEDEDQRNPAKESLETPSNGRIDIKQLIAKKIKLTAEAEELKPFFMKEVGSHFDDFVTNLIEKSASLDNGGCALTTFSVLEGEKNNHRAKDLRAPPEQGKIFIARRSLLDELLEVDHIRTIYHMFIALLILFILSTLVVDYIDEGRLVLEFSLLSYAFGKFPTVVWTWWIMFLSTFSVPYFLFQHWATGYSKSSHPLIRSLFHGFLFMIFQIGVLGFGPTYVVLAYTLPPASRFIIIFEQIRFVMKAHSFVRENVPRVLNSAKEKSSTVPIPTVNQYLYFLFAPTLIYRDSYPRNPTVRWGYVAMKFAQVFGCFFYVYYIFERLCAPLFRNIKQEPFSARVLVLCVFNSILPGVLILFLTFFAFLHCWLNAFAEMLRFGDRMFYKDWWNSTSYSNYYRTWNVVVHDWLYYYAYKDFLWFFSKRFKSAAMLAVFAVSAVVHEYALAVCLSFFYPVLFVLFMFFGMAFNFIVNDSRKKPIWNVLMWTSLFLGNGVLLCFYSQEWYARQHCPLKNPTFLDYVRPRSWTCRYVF

[2] = target: T1, Sterol O-acyltransferase 1; assay: Inhibition of human ACAT1 expressed in AC29 cells by cell-based fluorescent assay system
[3] = target: T2, Sterol O-acyltransferase 2 (Homo sapiens, UniProt O75908); assay: Inhibition of human ACAT2 expressed in Hi5 cells; parameters: species or system BTI-TN-5B1-4
T2 sequence (O75908 whole entry): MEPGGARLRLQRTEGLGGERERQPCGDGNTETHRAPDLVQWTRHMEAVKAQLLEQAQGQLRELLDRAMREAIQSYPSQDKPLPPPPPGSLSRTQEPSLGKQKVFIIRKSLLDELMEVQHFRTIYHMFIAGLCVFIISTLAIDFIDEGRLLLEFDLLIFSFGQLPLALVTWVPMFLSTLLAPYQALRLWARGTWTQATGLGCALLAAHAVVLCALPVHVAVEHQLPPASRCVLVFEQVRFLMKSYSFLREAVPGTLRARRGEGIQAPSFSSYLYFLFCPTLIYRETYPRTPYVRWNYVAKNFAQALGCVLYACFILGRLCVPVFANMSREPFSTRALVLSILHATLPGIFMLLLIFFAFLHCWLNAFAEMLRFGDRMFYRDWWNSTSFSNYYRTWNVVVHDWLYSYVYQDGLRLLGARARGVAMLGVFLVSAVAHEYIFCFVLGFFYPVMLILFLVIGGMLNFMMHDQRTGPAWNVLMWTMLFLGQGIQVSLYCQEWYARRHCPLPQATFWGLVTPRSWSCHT

[4] = target: T3, Sterol O-acyltransferase 1 (Homo sapiens) (UniProt P35610); assay: Inhibition of human ACAT1 expressed in Hi5 cells at 120 uM; conditions: BTI-TN-5B1-4
T3 sequence (whole entry): T1 sequence (P35610 whole entry)

| IC50 [3] [µM] | Compound | other results |
| --- | --- | --- |
| – | CC(C)=CC[C@@H](OC(=O)CC(C)C)C1=CC(=O)c2c(O)ccc(O)c2C1=O | IC50 [1]: 13.8 µM; IC50 [2]: 0.6 µM |
| 56.2 | CC(C)=CC[C@@H](OC(=O)c1ccccc1)C1=CC(=O)c2c(O)ccc(O)c2C1=O | – |
| 57.5 | CC(C)=CC[C@@H](OC(=O)C(C)C)C1=CC(=O)c2c(O)ccc(O)c2C1=O [ISOBUTYLSHIKONIN] | inhibition [4]: 32% |
| 138 | CC(C)=CC[C@@H](O)C1=CC(=O)c2c(O)ccc(O)c2C1=O [SHIKONIN] | – |
| 84.5 | CCCCC(=O)O[C@H](CC=C(C)C)C1=CC(=O)c2c(O)ccc(O)c2C1=O | – |
| 71.4 | C=CCCC(=O)O[C@H](CC=C(C)C)C1=CC(=O)c2c(O)ccc(O)c2C1=O | – |
| 49.6 | CCCC(=O)O[C@H](CC=C(C)C)C1=CC(=O)c2c(O)ccc(O)c2C1=O | – |
| 112 | CC(=O)O[C@H](CC=C(C)C)C1=CC(=O)c2c(O)ccc(O)c2C1=O [ACETYLSHIKONIN] | – |

| Compound | IC50 [3] [µM] | other results |
| --- | --- | --- |
| CC(C)=CC[C@@H](OC(=O)CC(C)(C)O)C1=CC(=O)c2c(O)ccc(O)c2C1=O [BETA-HYDROXYISOVALERYLSHIKONIN] | 170 | – |
| CCC(=O)O[C@H](CC=C(C)C)C1=CC(=O)c2c(O)ccc(O)c2C1=O | 28.7 | – |
